Data published in patent US20250152585A1, “PHARMACEUTICAL COMPOUND” (Duke Street Bio Limited, priority 2022, published 2025).
Where two headings read alike, the source gives them in different places.

Assays:
[1] = target: T1, N-terminally FLAG-tagged PARP2 (amino acids 1-583) (Homo sapiens, UniProt Q9UGN5); assay: PARP2 probe displacement HTRF assay; assay type: binding; conditions: binned Kd
T1 construct: N-terminally FLAG-tagged PARP2 (amino acids 1-583)
Method: Data analysis was performed identical as for PARP1.

[2] = target: T2, PARP1 (Homo sapiens, UniProt P09874); assay: NanoBRET cellular target occupancy assay, PARP1; assay type: cell-based; conditions: for Kd: HEK293 cells transiently transfected with PARP1-NanoLuc fusion, tracer 11 nM, 2 hours at 37° C., Kd by Cheng-Prussoff; for Selectivity: NanoBRET, PARP1 over PARP2, Kd (PARP2)/Kd (PARP1)
T2 construct: host or cells: HEK293
T2 sequence (P09874 whole entry, the tested form may be a part): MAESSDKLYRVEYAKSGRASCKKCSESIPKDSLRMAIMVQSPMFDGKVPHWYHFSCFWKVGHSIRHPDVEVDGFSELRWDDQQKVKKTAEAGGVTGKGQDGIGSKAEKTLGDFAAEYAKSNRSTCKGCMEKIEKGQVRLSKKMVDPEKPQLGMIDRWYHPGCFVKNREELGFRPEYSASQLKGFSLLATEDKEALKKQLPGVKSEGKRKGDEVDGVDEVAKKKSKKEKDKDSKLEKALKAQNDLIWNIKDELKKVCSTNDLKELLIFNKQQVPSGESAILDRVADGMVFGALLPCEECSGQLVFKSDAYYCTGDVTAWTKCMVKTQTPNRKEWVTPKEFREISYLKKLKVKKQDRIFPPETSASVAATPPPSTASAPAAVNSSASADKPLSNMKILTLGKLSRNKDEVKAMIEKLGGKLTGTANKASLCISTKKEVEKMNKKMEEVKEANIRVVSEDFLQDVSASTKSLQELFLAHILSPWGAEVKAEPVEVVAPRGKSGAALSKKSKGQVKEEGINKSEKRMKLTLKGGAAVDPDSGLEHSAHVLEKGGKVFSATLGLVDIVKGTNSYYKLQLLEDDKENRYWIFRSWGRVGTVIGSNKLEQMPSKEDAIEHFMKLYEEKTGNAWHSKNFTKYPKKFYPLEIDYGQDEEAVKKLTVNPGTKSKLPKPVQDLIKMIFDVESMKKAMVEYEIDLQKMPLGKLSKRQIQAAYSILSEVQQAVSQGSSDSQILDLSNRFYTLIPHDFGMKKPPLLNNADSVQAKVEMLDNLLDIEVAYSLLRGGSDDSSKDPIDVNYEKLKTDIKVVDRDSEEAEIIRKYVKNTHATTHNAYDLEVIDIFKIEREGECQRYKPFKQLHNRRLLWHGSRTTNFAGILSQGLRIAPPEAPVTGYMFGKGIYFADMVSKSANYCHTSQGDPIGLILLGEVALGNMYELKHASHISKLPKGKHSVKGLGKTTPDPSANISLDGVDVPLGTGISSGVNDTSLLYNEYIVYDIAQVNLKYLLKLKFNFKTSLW

[3] = target: T3, PARP2 (Homo sapiens, UniProt Q9UGN5); assay: NanoBRET cellular target occupancy assay, PARP2; assay type: cell-based; conditions: HEK293 cells transiently transfected with PARP2-NanoLuc fusion; tracer 2 nM; 2 hours at 37° C.; Kd by Cheng-Prussoff
T3 construct: host or cells: HEK293
T3 sequence (Q9UGN5 whole entry, the tested form may be a part): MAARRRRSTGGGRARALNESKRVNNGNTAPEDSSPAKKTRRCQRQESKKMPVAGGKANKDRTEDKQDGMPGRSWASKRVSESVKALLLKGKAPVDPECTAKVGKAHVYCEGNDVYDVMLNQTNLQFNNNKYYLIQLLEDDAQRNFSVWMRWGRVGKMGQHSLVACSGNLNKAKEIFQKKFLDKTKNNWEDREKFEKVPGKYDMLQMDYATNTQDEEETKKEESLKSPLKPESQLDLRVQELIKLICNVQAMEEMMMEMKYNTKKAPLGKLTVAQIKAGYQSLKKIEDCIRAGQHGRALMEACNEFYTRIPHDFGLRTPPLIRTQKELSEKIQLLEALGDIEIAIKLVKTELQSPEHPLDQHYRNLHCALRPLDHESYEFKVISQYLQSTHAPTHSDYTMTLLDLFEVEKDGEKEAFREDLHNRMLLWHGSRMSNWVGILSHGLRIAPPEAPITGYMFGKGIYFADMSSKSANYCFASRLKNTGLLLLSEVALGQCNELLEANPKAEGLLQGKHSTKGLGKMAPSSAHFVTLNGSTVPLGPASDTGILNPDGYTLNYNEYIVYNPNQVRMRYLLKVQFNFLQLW
Text: NanoBRET Cellular Target Occupancy Assay

[4] = target: T4, full length N-terminally FLAG-tagged PARP1 (Homo sapiens, UniProt P09874); assay: PARP1 biochemical DELFIA assay (auto-PARylation); parameters: recombinant full length human N-terminally FLAG-tagged PARP1
T4 sequence (P09874 whole entry): as the sequence (P09874 whole entry, the tested form may be a part) above

[5] = target: T4, full length N-terminally FLAG-tagged PARP1; assay: PARP1 probe displacement HTRF assay; conditions: for Selectivity: PARP1 over PARP2, ratio Kd (PARP2)/Kd (PARP1); for Kd: binned Kd
[6] = binned IC50, PARP1 biochemical DELFIA assay
[7] = read-out: PARP1 HTRF, PARP1 probe displacement HTRF
[8] = binned IC50, biochemical auto-PARylation assay
[9] = PARP1 HTRF, probe displacement HTRF
[10] = read-out: PARP1 HTRF, probe displacement HTRF

T1 sequence (Q9UGN5 whole entry, the tested form may be a part): as the sequence (Q9UGN5 whole entry, the tested form may be a part) above

Kd ([1]; PARP2 probe displacement HTRF) [nM]	Kd [2] [nM]	Kd [3] [nM]	IC50 [4, 6] [nM]	Kd [5, 7] [nM]	Kd ([1]; probe displacement HTRF) [nM]	IC50 [4, 8] [nM]	Kd [5, 9] [nM]	Kd [5, 10] [nM]	Structure (SMILES)	Selectivity [2]	Selectivity ([5]; probe displacement HTRF)
1000 to 10000	< 10	> 10000	< 10	< 10					CCc1ccc(C2CCN(C3CCN(c4ccc(C(=O)NC)nc4Cl)CC3)C2)[nH]c1=O (racemic) [Compound 144rac]	+++ (+++ indicate a value of at least 100)	+++ (+++ indicate a value of at least 100)
100 to 1000	< 10	1000 to 10000	< 10	< 10					CNC(=O)c1ccc(N2CCC(N3CCC(c4cc5ccc(F)cc5c(=O)[nH]4)C3)CC2)c(F)n1 (single isomer, unassigned) [Compound 174a]	+++ (+++ indicate a value of at least 100)	+++ (+++ indicate a value of at least 100)
1000 to 10000	< 10	> 10000	< 10	< 10					CNC(=O)c1ccc(N2CCC(N3CCC(c4nc5ccccc5c(=O)[nH]4)C3)CC2)c(F)n1 (racemic) [Compound 157rac]	+++ (+++ indicate a value of at least 100)	+++ (+++ indicate a value of at least 100)
	10 to 100	100 to 1000			10 to 100	< 10	< 10		CNC(=O)c1ccc(N2CCC(N3CC4(c5nc6c(c(=O)[nH]5)CCCN6C)CC3C4)CC2)cn1 [Compound 330]	+ (+ indicates a value of 10 to less than 50)	+ (+ indicates a value of 10 to less than 50)
100 to 1000	< 10	1000 to 10000	< 10	< 10					CNC(=O)c1ccc(N2CCC(N3CCC(c4cc5ccc(F)cc5c(=O)[nH]4)C3)CC2)c(Cl)n1 (racemic) [Compound 175rac]	+++ (+++ indicate a value of at least 100)	+++ (+++ indicate a value of at least 100)
10 to 100	< 10	100 to 1000	< 10	< 10					CNC(=O)c1ccc(N2CCC(N3CCC(c4cc5ccc(F)cc5c(=O)[nH]4)C3)CC2)c(F)n1 (single isomer, unassigned) [Compound 174b]	+++ (+++ indicate a value of at least 100)	+++ (+++ indicate a value of at least 100)
100 to 1000	< 10	1000 to 10000	< 10	< 10					CNC(=O)c1ccc(N2CCC(N3CCC(c4cc5ccc(F)cc5c(=O)[nH]4)C3)CC2)c(F)n1 (racemic) [Compound 174rac]	+++ (+++ indicate a value of at least 100)	+++ (+++ indicate a value of at least 100)
	< 10	> 10000			1000 to 10000	< 10	< 10		CCc1cnc(C23CC(C2)N(C2CCN(c4ccc(C(=O)NC)nc4F)CC2)C3)[nH]c1=O [Compound 300]	+++ (+++ indicate a value of at least 100)	+++ (+++ indicate a value of at least 100)
	10 to 100	> 10000			> 10000	< 10	< 10		CNC(=O)c1ccc(N2CCC(N3CC4(c5nc6c(c(=O)[nH]5)CCC6)CC3C4)CC2)c(F)n1 [Compound 302]	+++ (+++ indicate a value of at least 100)	+++ (+++ indicate a value of at least 100)
	< 10	100 to 1000			100 to 1000	< 10		< 10	CNC(=O)c1ccc(N2CCC(N3CCC(c4cc5ccc(F)cc5c(=O)[nH]4)C3)CC2)c(Cl)n1 (single isomer, unassigned) [Compound 223b]	+++ (+++ indicate a value of at least 100)	+++ (+++ indicate a value of at least 100)
< 10	< 10	10 to 100	< 10	< 10					CNC(=O)c1ccc(N2CCC(N3CCC(c4nc5c(c(C(F)(F)F)cn5C)c(=O)[nH]4)C3)CC2)cn1 (racemic) [Compound 170rac]	+ (+ indicates a value of 10 to less than 50)	− (− indicates a value of less than 10)
	< 10	> 10000			1000 to 10000	< 10	< 10		CNC(=O)c1ccc(N2CCC(N3CC4(c5nc6cccc(F)c6c(=O)[nH]5)CC3C4)CC2)c(F)n1 [Compound 228]	+++ (+++ indicate a value of at least 100)	+++ (+++ indicate a value of at least 100)
< 10	10 to 100	100 to 1000	< 10	< 10					CNC(=O)c1ccc(N2CCC(N3CCC(c4nc5[nH]cc(C(F)(F)F)c5c(=O)[nH]4)C3)CC2)cn1 (racemic) [Compound 150rac]	+ (+ indicates a value of 10 to less than 50)	− (− indicates a value of less than 10)
	< 10	1000 to 10000			1000 to 10000	< 10		< 10	CNC(=O)c1ccc(N2CCC(N3CCC(c4ccc(CC5CC5)c(=O)[nH]4)C3)CC2)c(F)n1 (single isomer, unassigned) [Compound 313b]	+++ (+++ indicate a value of at least 100)	+++ (+++ indicate a value of at least 100)
	< 10	100 to 1000			10 to 100	< 10		< 10	CNC(=O)c1ccc(N2CCC(N3CCC(c4cc5c(F)ccc(F)c5c(=O)[nH]4)C3)CC2)c(F)n1 (single isomer, unassigned) [Compound 323b]	+++ (+++ indicate a value of at least 100)	+++ (+++ indicate a value of at least 100)
	< 10	1000 to 10000			100 to 1000	< 10	< 10		CNC(=O)c1ccc(N2CCC(N3CCC(c4cc5ncc(F)cc5c(=O)[nH]4)C3)CC2)c(F)n1 (racemic) [Compound 324rac, 6-fluoro-5-(4-(3-(3-fluoro-5-oxo-5,6-dihydro-1,6-naphthyridin-7-yl)pyrrolidin-1-yl)piperidin-1-yl)-N-methylpicolinamide]	+++ (+++ indicate a value of at least 100)	+++ (+++ indicate a value of at least 100)
		1000 to 10000			100 to 1000				CNC(=O)c1ccc(N2CCC(N3CCC(c4cc5c(F)cncc5c(=O)[nH]4)C3)CC2)c(F)n1 (single isomer, unassigned) [Compound 343a, 6-fluoro-5-(4-(3-(5-fluoro-1-oxo-1,2-dihydro-2,7-naphthyridin-3-yl)pyrrolidin-1-yl)piperidin-1-yl)-N-methylpicolinamide]		
		100 to 1000				< 10		< 10	CNC(=O)c1ccc(N2CCC(N3CCC(c4cc5c(c(=O)[nH]4)CCCC5)C3)CC2)c(F)n1 (single isomer, unassigned) [Compound 337b, 6-fluoro-N-methyl-5-(4-(3-(1-oxo-1,2,5,6,7,8-hexahydroisoquinolin-3-yl)pyrrolidin-1-yl)piperidin-1-yl)picolinamide]		+++ (+++ indicate a value of at least 100)
